Measured values: patent US6410563B1, “Substituted 8-arylquinoline phosphodiesterase-4 inhibitors” (Merck Frosst Canada & Co., priority 1999, dated 2002)

Assay: Formation as a metabolite in the mammalian system
Set-up: species or system mammal
Conditions: Example 19 is formed in vivo when Example 14 is administered
Method: For example, Example 19, (5-{(E)-2-(3-{6-[1-methyl-1-(methylsulfonyl)ethyl]-8-quinolinyl}phenyl)-1-[4-(methylslfonyl)phenyl]ehtenyl}-1,2,4-oxadiazol-3-yl)methanol; [drawing 2]
is administered. Accordingly, the present invention includes prodrugs that form PDE4 inhibitors in vivo as a metabolite after administering such prodrugs to a mammal. Further, this invention includes a method of treatment by a step of administering a prodrug to form in vivo an effective amount of a PDE4 inhibitor described by Formula I.

Structure (SMILES) | metabolite formation in vivo
Cc1noc(/C(=C/c2cccc(-c3cc(C(C)(C)S(C)(=O)=O)cc4cccnc34)c2)c2ccc(S(C)(=O)=O)cc2)n1 [Example 14, 6-[1-methyl-1-(methylsulfonyl)ethyl]-8-(3-{(E/Z)-2-(3-methyl-1,2,4-oxadiazol-5-yl)-2-[4-(methylsulfonyl)phenyl]ethenyl}phenyl)quinoline] | formed in vivo as a metabolite
CC(C)(c1cc(-c2cccc(/C=C(\c3ccc(S(C)(=O)=O)cc3)c3nc(CO)no3)c2)c2ncccc2c1)S(C)(=O)=O [Example 19, (5-{(E)-2-(3-{6-[1-methyl-1-(methylsulfonyl)ethyl]-8-quinolinyl}phenyl)-1-[4-(methylsulfonyl)phenyl]ethenyl}-1,2,4-oxadiazol-3-yl)methanol] | formed as a metabolite in the mammalian system
